Results on 41 compounds are retold here after patent US8889677B2, “Substituted triazoles useful as mGlu5 receptor modulators” (Boehringer Ingellheim International GmbH, priority 2012, dated 2014).

What is called EC50 is the concentration that produces a half-maximal response.

In the assay the target is T1, human recombinant mGluR5 (Homo sapiens, UniProt P41594).
T1 construct: expressed in transfected cells; host or cells: HEK 293 cell line cultured with tetracycline, hygromycin and geneticin; tetracycline removed 3-7 days before the assay
T1 sequence (P41594 21-1212): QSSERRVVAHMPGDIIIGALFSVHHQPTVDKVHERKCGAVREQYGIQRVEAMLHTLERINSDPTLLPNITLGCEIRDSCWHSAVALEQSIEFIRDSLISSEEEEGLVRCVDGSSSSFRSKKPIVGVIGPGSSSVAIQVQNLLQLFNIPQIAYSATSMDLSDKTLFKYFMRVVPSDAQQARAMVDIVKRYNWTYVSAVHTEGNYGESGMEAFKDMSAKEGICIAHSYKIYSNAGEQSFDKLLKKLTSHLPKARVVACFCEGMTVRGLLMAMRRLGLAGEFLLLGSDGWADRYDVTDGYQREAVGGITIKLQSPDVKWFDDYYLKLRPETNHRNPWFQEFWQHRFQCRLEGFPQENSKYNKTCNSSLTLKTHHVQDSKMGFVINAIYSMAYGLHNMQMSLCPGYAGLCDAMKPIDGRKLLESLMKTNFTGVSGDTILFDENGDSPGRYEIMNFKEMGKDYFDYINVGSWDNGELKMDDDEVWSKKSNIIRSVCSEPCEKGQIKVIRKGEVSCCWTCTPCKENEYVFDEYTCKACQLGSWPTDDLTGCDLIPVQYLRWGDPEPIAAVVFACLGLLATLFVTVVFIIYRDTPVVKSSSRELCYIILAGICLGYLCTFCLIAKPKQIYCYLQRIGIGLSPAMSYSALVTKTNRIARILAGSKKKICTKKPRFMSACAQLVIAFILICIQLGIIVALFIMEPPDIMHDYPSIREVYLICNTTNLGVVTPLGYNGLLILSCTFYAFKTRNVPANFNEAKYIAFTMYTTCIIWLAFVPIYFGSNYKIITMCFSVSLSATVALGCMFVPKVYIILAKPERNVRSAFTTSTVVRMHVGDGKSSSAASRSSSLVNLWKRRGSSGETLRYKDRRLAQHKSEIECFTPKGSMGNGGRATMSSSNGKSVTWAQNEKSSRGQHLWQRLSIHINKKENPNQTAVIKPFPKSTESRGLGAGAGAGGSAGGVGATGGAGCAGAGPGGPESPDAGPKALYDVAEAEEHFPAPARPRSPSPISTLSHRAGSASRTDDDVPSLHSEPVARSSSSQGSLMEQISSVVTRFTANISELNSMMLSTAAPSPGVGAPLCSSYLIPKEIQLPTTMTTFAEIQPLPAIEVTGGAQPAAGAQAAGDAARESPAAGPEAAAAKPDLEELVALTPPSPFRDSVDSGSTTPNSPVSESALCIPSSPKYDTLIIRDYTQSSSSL
The experiment in a line: positive modulation of mGluR5, calcium based FLIPR assay in HEK 293 cells. The conditions noted are these: HEK 293 cell line expressing human recombinant mGluR5; EC50 of the modulation of the glutamate response (glutamate approx. 5% basal stimulation); peak height of Ca release fluorescence signal. In a few lines: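 HEK 293 cells expressing human mGluR5 (tetracycline-free medium 3-7 days before), loaded with Calcium-4 dye, in Ringer buffer pH 7.4, 1% DMSO. Compound pre-incubated 5 min, then glutamate at about 5% of maximal effect added; EC50 from peak Ca2+ fluorescence by nonlinear regression, scaled between DMSO (100%) and 10 μM CDPPB (200%) controls.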
`CN(C)CCOc1cc(N2CCN(C(=O)Cn3nc(-c4ccc(F)cc4)nc3-c3ccc(F)cc3)CC2)ncn1` [Example 07.07.02.]: the half-maximal effective concentration (EC50) turned out to be 988 nM.
Regarding `CN(CC1CCOC1)c1cc(N2CCN(C(=O)Cn3nc(-c4ccc(F)cc4)nc3-c3ccc(F)cc3)CC2)ncn1` (centres unmarked) [Example 07.08.01., 2-(3,5-bis-(4-fluoro-phenyl)-(1,2,4)triazol-1-yl)-1-(4-(6-(methyl-(tetrahydro-furan-3-ylmethyl)-amino)-pyrimidin-4-yl)-piperazin-1-yl)-ethanone], the EC50 was 201 nM.
Consider `O=C(Cn1nc(-c2ccc(F)cc2)nc1-c1ccc(F)cc1)N1CCN(c2cc(N3CCC(O)CC3)ncn2)CC1` [Example 07.08.02.], for which the EC50 stood at 284 nM.
With `COCCN(C)c1cc(N2CCN(C(=O)Cn3nc(-c4ccc(F)cc4)nc3-c3ccc(F)cc3)CC2)ncn1` [Example 07.08.03.], the EC50 was determined as 238 nM.
Turning to `O=C(Cn1nc(-c2ccc(F)cc2)nc1-c1ccc(F)cc1)N1CCN(c2cc(NC3CC3)ncn2)CC1` [Example 07.08.04.], the concentration for a half-maximal effect (EC50) amounted to 430 nM.
Take `O=C(Cn1nc(-c2ccc(F)cc2)nc1-c1ccc(F)cc1)N1CCN(c2cc(NC3CCOCC3)ncn2)CC1` [Example 07.08.05.]: the 50% effective concentration (EC50) came out at 510 nM.
The figure for `COC1CCN(c2cc(N3CCN(C(=O)Cn4nc(-c5ccc(F)cc5)nc4-c4ccc(F)cc4)CC3)ncn2)CC1` [Example 07.08.06.] is 259 nM.
Turning to `CC(C)Nc1cc(N2CCN(C(=O)Cn3nc(-c4ccc(F)cc4)nc3-c3ccc(F)cc3)CC2)ncn1` [Example 07.08.07.], the EC50 turned out to be 151 nM.
Turning to `CC(C)CCN(C)c1cc(N2CCN(C(=O)Cn3nc(-c4ccc(F)cc4)nc3-c3ccc(F)cc3)CC2)ncn1` [Example 07.08.08.], the EC50 is 359 nM.
Consider `CN(CCO)c1cc(N2CCN(C(=O)Cn3nc(-c4ccc(F)cc4)nc3-c3ccc(F)cc3)CC2)ncn1` [Example 07.08.09.], for which the 50% effective concentration (EC50) was determined as 332 nM.
Take `COCCN1CCN(c2cc(N3CCN(C(=O)Cn4nc(-c5ccc(F)cc5)nc4-c4ccc(F)cc4)CC3)ncn2)CC1` [Example 07.08.10.]: the EC50 was determined as 1030 nM.
`COCCCN(C)c1cc(N2CCN(C(=O)Cn3nc(-c4ccc(F)cc4)nc3-c3ccc(F)cc3)CC2)ncn1` [Example 07.08.11.]: the 50% effective concentration (EC50) was found to be 293 nM.
The result for `CCNc1cc(N2CCN(C(=O)Cn3nc(-c4ccc(F)cc4)nc3-c3ccc(F)cc3)CC2)ncn1` [Example 07.08.12.] reads 210 nM; that for `O=C(Cn1nc(-c2ccc(F)cc2)nc1-c1ccc(F)cc1)N1CCN(c2cc(N3CCCC3)ncn2)CC1` [Example 07.08.13.], 343 nM.
For `CN1CCN(c2cc(N3CCN(C(=O)Cn4nc(-c5ccc(F)cc5)nc4-c4ccc(F)cc4)CC3)ncn2)CC1=O` [Example 07.08.14.], the EC50 came to 822 nM.
In the case of `CCN(CC)c1cc(N2CCN(C(=O)Cn3nc(-c4ccc(F)cc4)nc3-c3ccc(F)cc3)CC2)ncn1` [Example 07.08.15.], the EC50 stood at 205 nM.
In the case of `CN1CCC(Nc2cc(N3CCN(C(=O)Cn4nc(-c5ccc(F)cc5)nc4-c4ccc(F)cc4)CC3)ncn2)CC1` [Example 07.08.16.], the EC50 stood at 1160 nM.
The figure for `O=C(Cn1nc(-c2ccc(F)cc2)nc1-c1ccc(F)cc1)N1CCN(c2cc(NCc3ccccn3)ncn2)CC1` [Example 07.08.17.] is 286 nM.
The result for `CN(c1cc(N2CCN(C(=O)Cn3nc(-c4ccc(F)cc4)nc3-c3ccc(F)cc3)CC2)ncn1)C1CC1` [Example 07.08.18.] reads 455 nM; that for `CCN(C)c1cc(N2CCN(C(=O)Cn3nc(-c4ccc(F)cc4)nc3-c3ccc(F)cc3)CC2)ncn1` [Example 07.08.19.], 208 nM; that for `O=C(Cn1nc(-c2ccc(F)cc2)nc1-c1ccc(F)cc1)N1CCN(c2cc(NC3CCC3)ncn2)CC1` [Example 07.08.20.], 155 nM.
The figure for `COCCNc1cc(N2CCN(C(=O)Cn3nc(-c4ccc(F)cc4)nc3-c3ccc(F)cc3)CC2)ncn1` [Example 07.08.21.] is 201 nM; for `O=C(Cn1nc(-c2ccc(F)cc2)nc1-c1ccc(F)cc1)N1CCN(c2cc(N3CCC3)ncn2)CC1` [Example 07.08.22.] it is 280 nM.
Consider `CN1CCN(c2cc(N3CCN(C(=O)Cn4nc(-c5ccc(F)cc5)nc4-c4ccc(F)cc4)CC3)ncn2)CC1` [Example 07.08.23.], for which the EC50 was found to be 1590 nM.
Regarding `CNc1cc(N2CCN(C(=O)Cn3nc(-c4ccc(F)cc4)nc3-c3ccc(F)cc3)CC2)ncn1` [Example 07.08.24.], the concentration giving a half-maximal response (EC50) was determined as 191 nM.
With `COCCCCOc1cc(N2CCN(C(=O)Cn3nc(-c4ccc(F)cc4)nc3-c3ccc(F)cc3)CC2)ncn1` [Example 07.09.01., 2-(3,5-Bis-(4-fluoro-phenyl)-(1,2,4)triazol-1-yl]-1-(4-(6-(4-methoxy-butoxy)-pyrimidin-4-yl)-piperazin-1-yl)-ethanone], the EC50 stood at 68 nM.
Take `O=C(Cn1nc(-c2ccc(F)cc2)nc1-c1ccc(F)cc1)N1CCN(c2cc(OCC3CCCO3)ncn2)CC1` (centres unmarked) [Example 07.09.02.]: the 50% effective concentration (EC50) was 59 nM.
The result for `O=C(Cn1nc(-c2ccc(F)cc2)nc1-c1ccc(F)cc1)N1CCN(c2cc(OC[C@H]3CCCO3)ncn2)CC1` [Example 07.09.03.] reads 58 nM; that for `O=C(Cn1nc(-c2ccc(F)cc2)nc1-c1ccc(F)cc1)N1CCN(c2cc(OCCOCCO)ncn2)CC1` [Example 07.09.04.], 64 nM; that for `O=C(Cn1nc(-c2ccc(F)cc2)nc1-c1ccc(F)cc1)N1CCN(c2cc(OCC3CCOC3)ncn2)CC1` (centres unmarked) [Example 07.09.05.], 41 nM.
Consider `COCCOCCOc1cc(N2CCN(C(=O)Cn3nc(-c4ccc(F)cc4)nc3-c3ccc(F)cc3)CC2)ncn1` [Example 07.09.06.], for which the EC50 was 130 nM.
Consider `O=C(Cn1nc(-c2ccc(F)cc2)nc1-c1ccc(F)cc1)N1CCN(c2cc(OCCN3CCOCC3)ncn2)CC1` [Example 07.09.07.], for which the 50% effective concentration (EC50) stood at 110 nM.
With `CC(=O)N1CCC(Oc2cc(N3CCN(C(=O)Cn4nc(-c5ccc(F)cc5)nc4-c4ccc(F)cc4)CC3)ncn2)CC1` [Example 07.09.08.], the EC50 came to 74 nM.
The figure for `O=C(Cn1nc(-c2ccc(F)cc2)nc1-c1ccc(F)cc1)N1CCN(c2cc(OC3CCCOC3)ncn2)CC1` (centres unmarked) [Example 07.09.09.] is 109 nM; for `O=C(Cn1nc(-c2ccc(F)cc2)nc1-c1ccc(F)cc1)N1CCN(c2cc(OCC3CCCCO3)ncn2)CC1` (centres unmarked) [Example 07.09.10.] it is 52 nM; for `O=C(Cn1nc(-c2ccc(F)cc2)nc1-c1ccc(F)cc1)N1CCN(c2cc(O[C@H]3CCOC3)ncn2)CC1` [Example 07.09.11.] it is 56 nM.
In the case of `O=C1CCCN1CCOc1cc(N2CCN(C(=O)Cn3nc(-c4ccc(F)cc4)nc3-c3ccc(F)cc3)CC2)ncn1` [Example 07.09.12.], the EC50 was determined as 170 nM.
On to `O=C(Cn1nc(-c2ccc(F)cc2)nc1-c1ccc(F)cc1)N1CCN(c2cc(OCc3ccccn3)ncn2)CC1` [Example 07.09.13.], for which the EC50 came out at 47 nM.
`COC[C@@H](C)Oc1cc(N2CCN(C(=O)Cn3nc(-c4ccc(F)cc4)nc3-c3ccc(F)cc3)CC2)ncn1` [Example 07.09.14.]: the half-maximal effective concentration (EC50) was found to be 38 nM.
On to `O=C(Cn1nc(-c2ccc(F)cc2)nc1-c1ccc(F)cc1)N1CCN(c2cc(O[C@H]3COC[C@H]3O)ncn2)CC1` [Example 07.09.15.], for which the half-maximal effective concentration (EC50) worked out at 224 nM.
Take `O=C(Cn1nc(-c2ccc(F)cc2)nc1-c1ccc(F)cc1)N1CCN(c2cc(OCCOCCOCCO)ncn2)CC1` [Example 07.09.16.]: the EC50 worked out at 173 nM.
